Assay [1] has as its target T1, Chitooligosaccharidolytic beta-N-acetylglucosaminidase (Ostrinia furnacalis) (UniProt Q06GJ0).
T1 sequence (whole entry): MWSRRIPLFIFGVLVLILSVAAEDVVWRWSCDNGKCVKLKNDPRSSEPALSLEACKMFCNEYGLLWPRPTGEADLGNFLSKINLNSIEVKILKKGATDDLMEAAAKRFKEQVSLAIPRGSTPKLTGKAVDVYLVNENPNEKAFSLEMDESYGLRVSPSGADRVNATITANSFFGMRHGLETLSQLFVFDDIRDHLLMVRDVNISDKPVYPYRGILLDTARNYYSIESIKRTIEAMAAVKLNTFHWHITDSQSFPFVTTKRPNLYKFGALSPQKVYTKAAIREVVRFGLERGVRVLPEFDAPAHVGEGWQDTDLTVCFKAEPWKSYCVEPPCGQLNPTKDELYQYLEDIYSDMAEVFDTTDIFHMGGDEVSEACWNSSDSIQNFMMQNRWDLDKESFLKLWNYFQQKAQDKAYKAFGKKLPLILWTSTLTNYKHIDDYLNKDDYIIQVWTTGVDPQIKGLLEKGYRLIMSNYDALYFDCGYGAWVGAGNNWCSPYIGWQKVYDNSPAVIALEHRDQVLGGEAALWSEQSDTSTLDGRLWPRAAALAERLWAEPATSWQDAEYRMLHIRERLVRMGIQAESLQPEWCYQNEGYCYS
The assay is described as follows: Inhibition of Ostrinia furnacalis Hex1 expressed in Pichia pastoris at 100 uM using 4-MU-GlcNAc as substrate measured after 30 mins by fluorescence assay relative to control.

Assay [2] concerns the target T2, Protein O-GlcNAcase (Homo sapiens) (UniProt O60502).
T2 sequence (whole entry): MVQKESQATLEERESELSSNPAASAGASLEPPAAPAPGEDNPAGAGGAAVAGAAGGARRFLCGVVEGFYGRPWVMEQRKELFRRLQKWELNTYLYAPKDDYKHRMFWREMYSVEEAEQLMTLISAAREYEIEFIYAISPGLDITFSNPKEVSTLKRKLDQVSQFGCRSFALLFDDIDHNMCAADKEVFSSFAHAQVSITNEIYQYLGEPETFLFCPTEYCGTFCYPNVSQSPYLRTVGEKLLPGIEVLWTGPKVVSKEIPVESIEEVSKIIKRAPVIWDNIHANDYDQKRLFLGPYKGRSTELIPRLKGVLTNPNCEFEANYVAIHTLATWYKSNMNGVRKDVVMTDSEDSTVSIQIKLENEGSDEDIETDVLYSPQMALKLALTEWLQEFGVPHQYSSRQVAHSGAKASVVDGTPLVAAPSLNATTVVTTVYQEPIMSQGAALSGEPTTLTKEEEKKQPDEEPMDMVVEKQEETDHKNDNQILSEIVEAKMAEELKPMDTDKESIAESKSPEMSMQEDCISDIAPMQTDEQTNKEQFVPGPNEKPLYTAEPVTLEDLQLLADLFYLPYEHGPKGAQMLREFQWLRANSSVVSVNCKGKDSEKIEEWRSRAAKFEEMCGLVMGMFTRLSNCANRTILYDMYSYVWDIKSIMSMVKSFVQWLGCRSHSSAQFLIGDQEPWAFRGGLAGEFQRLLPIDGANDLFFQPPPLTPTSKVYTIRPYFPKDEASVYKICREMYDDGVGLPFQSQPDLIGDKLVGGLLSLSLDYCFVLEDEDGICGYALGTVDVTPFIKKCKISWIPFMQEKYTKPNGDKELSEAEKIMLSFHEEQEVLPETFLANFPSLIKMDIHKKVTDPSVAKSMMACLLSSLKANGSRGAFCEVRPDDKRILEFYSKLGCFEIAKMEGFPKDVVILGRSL
The assay can be described thus: Inhibition of recombinant human OGA expressed in Escherichia coli BL21(DE3) at 100 uM using 4-MU-GlcNAc as substrate measured after 30 mins by fluorescence assay relative to control.

Assay [3] deals with T3, Chitooligosaccharidolytic beta-N-acetylglucosaminidase (Ostrinia furnacalis, UniProt Q06GJ0).
T3 sequence (Q06GJ0 whole entry): T1 sequence (whole entry)
The assay is described as follows: Inhibition of Ostrinia furnacalis Hex1 expressed in Pichia pastoris using varying levels of 4-MU-GlcNAc as substrate measured after 30 mins by fluorescence assay.

The target in assay [4] is T4, Protein O-GlcNAcase (Homo sapiens, UniProt O60502).
T4 sequence (O60502 whole entry): T2 sequence (whole entry)
The assay is described as follows: Inhibition of recombinant human OGA expressed in Escherichia coli BL21(DE3) using varying levels of 4-MU-GlcNAc as substrate measured after 30 mins by fluorescence assay.

In assay [5] the target is T2, Protein O-GlcNAcase (Homo sapiens). The assay can be described thus: Inhibition of recombinant human OGA expressed in Escherichia coli BL21(DE3) at 200 uM using 4-MU-GlcNAc as substrate measured after 30 mins by fluorescence assay relative to control.
The target of assay [6] is T1, Chitooligosaccharidolytic beta-N-acetylglucosaminidase (Ostrinia furnacalis). The assay is described as follows: Inhibition of Ostrinia furnacalis Hex1 expressed in Pichia pastoris at 200 uM using varying levels of 4-MU-GlcNAc as substrate measured after 30 mins by fluorescence assay relative to control.

The structures appear in SMILES notation.

Take `CC(=O)N[C@@H]1[C@@H](O)[C@H](O)[C@@H](CO)O[C@H]1SCCCCn1cc(CN2C(=O)c3cccc4cccc(c34)C2=O)nn1`: the inhibition turned out to be 89.9% in assay [1] and 25.1% in assay [2].
On the same counts, the results for `CC(=O)N[C@@H]1[C@@H](O)[C@H](O)[C@@H](CO)O[C@H]1SCCCCCn1cc(CN2C(=O)c3cccc4cccc(c34)C2=O)nn1` are 91.9% and 26%.
Take `CC(=O)N[C@H]1/C(=N/OC(=O)Nc2ccccc2)O[C@H](CO)[C@@H](O)[C@@H]1O`: the values for the inhibition in assay [1] and in assay [2] were 97.5% and 98.9%, respectively.
Consider `CC(=O)N[C@@H]1[C@@H](O)[C@H](O)[C@@H](CO)O[C@H]1S`, for which the inhibition was determined as 0% in assay [1] and 12% in assay [2].
For `CC(=O)N[C@@H]1[C@@H](O)[C@H](O)[C@@H](CO)O[C@H]1SCCCCCCn1cc(CN2C(=O)c3cccc4cccc(c34)C2=O)nn1`, the values for the Ki in assay [3] and in assay [4] were 21.8 µM and above 200 µM, respectively. The inhibition in assay [5] was below 50%; in assay [1] it was 93.2%; in assay [2] it was 25.7%.
`CC(=O)N[C@@H]1[C@@H](O)[C@H](O)[C@@H](CO)O[C@H]1SCCCn1cc(CN2C(=O)c3cccc4cccc(c34)C2=O)nn1`: the results for the inhibition in assay [1] and in assay [2] were 81.6% and 22.7%, respectively.
On the same counts, the results for `CC(=O)N[C@@H]1[C@@H](O)[C@H](O)[C@@H](CO)O[C@H]1SCC(=O)NCCCCN1C(=O)c2cccc3cccc(c23)C1=O` are 29.1% and 50%.
With `NN1C(=O)c2cccc3cccc(c23)C1=O`, the figures for the inhibition in assay [1] and in assay [2] were 28.1% and 22.2%, respectively.
`CC(=O)N[C@@H]1[C@@H](O)[C@H](O)[C@@H](CO)O[C@H]1SCCn1cc(CN2C(=O)c3cccc4cccc(c34)C2=O)nn1`: the inhibition came to 84% in assay [1] and 27.8% in assay [2].
Regarding `CC(=O)N[C@@H]1[C@@H](O)[C@H](O)[C@@H](CO)O[C@H]1SCC(=O)NCCN1C(=O)c2cccc3cccc(c23)C1=O`, the inhibition in assay [1] is 18.4%; in assay [2], 38.6%.
Consider `CC(=O)N[C@@H]1[C@@H](O)[C@H](O)[C@@H](CO)O[C@H]1SCCC(=O)NCCCN1C(=O)c2cccc3cccc(c23)C1=O`, for which the figures for the inhibition in assay [1] and in assay [2] were 25.3% and 59.4%, respectively.
The compound `CC(=O)N[C@@H]1[C@@H](O)[C@H](O)[C@@H](CO)O[C@H]1SCC(=O)NCCCN1C(=O)c2cccc3cccc(c23)C1=O` gave a Ki in assay [3] above 200 µM. In addition, the figures for the inhibition in assay [1], in assay [2] and in assay [6] were 29.2%, 97.6% and below 50%, respectively.
For `CC(=O)N[C@@H]1[C@@H](O)[C@H](O)[C@@H](CO)O[C@H]1SCC(=O)NN1C(=O)c2cccc3cccc(c23)C1=O`, the inhibition was found to be 24.9% in assay [1] and 31.1% in assay [2].
For the compound `CC(=O)N[C@@H]1[C@@H](O)[C@H](O)[C@@H](CO)O[C@H]1SCn1cc(CN2C(=O)c3cccc4cccc(c34)C2=O)nn1`, the inhibition was found to be 17.9% in assay [1] and 18.5% in assay [2].
`CC(=O)N[C@@H]1[C@@H](O)[C@H](O)[C@@H](CO)O[C@H]1SCCC(=O)NCCN1C(=O)c2cccc3cccc(c23)C1=O`: the inhibition in assay [1] came out at 25.8%; in assay [2] it was 66.9%.
As to `CC(=O)N[C@@H]1[C@@H](O)[C@H](O)[C@@H](CO)O[C@H]1SCCC(=O)NCCCCN1C(=O)c2cccc3cccc(c23)C1=O`, the inhibition was found to be 26.9% in assay [1] and 34.3% in assay [2].

By inhibition is commonly meant the relative decrease from the control value, in per cent. As a reminder, the Ki is a dissociation constant, usually derived from enzyme kinetics or from competition with a known ligand.
